Where “and” joins values, the source holds several entries; their conditions need not be identical. Equal values may be shown once. Toxic doses and inconclusive results are not listed. The calls were made as follows: active = survival T/C of 150% or more; inactive = T/C below 125% in these data.
Tested on: BDF1 mice, B16 melanoma ip, median survival T/C
Assay: NCI In Vivo Anticancer Drug Screen. Data for tumor model B16 Melanoma (intraperitoneal) in B6D2F1 (BDF1) mice
Details: endpoint: median survival time, higher = longer survival
Outline: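 Mice with transplantable tumors; drug vs vehicle groups; endpoint survival or tumor size; value = T/C.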

[1] = dose: 50.0 mg/kg/injection, schedule: Q01DX009 (ip), vehicle: saline with Tween-80
[2] = dose: 100.0 mg/kg/injection, schedule: Q01DX009 (ip), vehicle: saline with Tween-80
[3] = dose: 12.5 mg/kg/injection, schedule: Q01DX009 (ip), vehicle: saline with Tween-80
[4] = dose: 25.0 mg/kg/injection, schedule: Q01DX009 (ip), vehicle: saline with Tween-80
[5] = dose: 25.0 mg/kg/injection, schedule: Q01DX009 (ip), vehicle: Klucel (hydroxypropylcellulose) (HPC)
[6] = dose: 50.0 mg/kg/injection, schedule: Q01DX009 (ip), vehicle: Klucel (hydroxypropylcellulose) (HPC)
[7] = dose: 100.0 mg/kg/injection, schedule: Q01DX009 (ip), vehicle: Klucel (hydroxypropylcellulose) (HPC)

Measured: T/C

CN(C)CCCN1c2ccccc2Sc2ccccc21
inactive: dose: 4.6 mg/kg/injection, schedule: Q01DX009 (ip), vehicle: saline 111 % of control | dose: 9.3 mg/kg/injection, schedule: Q01DX009 (ip), vehicle: saline 111 % of control | dose: 18.75 mg/kg/injection, schedule: Q01DX009 (ip), vehicle: saline with Tween-80 101 % of control | dose: 18.75 mg/kg/injection, schedule: Q01DX009 (ip), vehicle: saline 120 % of control | dose: 35.5 mg/kg/injection, schedule: Q01DX009 (ip), vehicle: saline 111 % of control | dose: 37.5 mg/kg/injection, schedule: Q01DX009 (ip), vehicle: saline with Tween-80 97 % of control | dose: 75.0 mg/kg/injection, schedule: Q01DX009 (ip), vehicle: saline with Tween-80 95 % of control

Cc1c(Cl)cccc1NS(=O)(=O)c1cccc([N+](=O)[O-])c1
inactive: [1] 100 % of control | [2] 91 % of control | dose: 200.0 mg/kg/injection, schedule: Q01DX009 (ip), vehicle: saline with Tween-80 98 % of control

CCOC(Cl)CCl (stereo not drawn)
inactive: [3] 97 % of control | [4] 102 % of control

O=C(O)C1CC1.[Ag]
inactive: dose: 0.78 mg/kg/injection, schedule: Q01DX009 (ip), vehicle: water 114 % of control | dose: 1.56 mg/kg/injection, schedule: Q01DX009 (ip), vehicle: water 108 % of control | dose: 3.12 mg/kg/injection, schedule: Q01DX009 (ip), vehicle: water 108 % of control | dose: 6.25 mg/kg/injection, schedule: Q01DX009 (ip), vehicle: water 93 % of control | dose: 12.5 mg/kg/injection, schedule: Q01DX009 (ip), vehicle: water 91 % of control

CCS(=O)(=O)OCCCl
inactive: [4] 104 % of control | [1] 100 % of control | [2] 103 % of control

COc1cc2c(cc1OC)C1CCN3CCCC3N1CC2 (stereo not drawn)
inactive: [5] 105 % of control | [6] 105 % of control | [7] 86 % of control and 100 % of control and 116 % of control

Cc1ccc(NC(=O)Nc2cccc(Cl)c2C)cc1NC(=O)Nc1cccc(Cl)c1C
inactive: dose: 6.25 mg/kg/injection, schedule: Q01DX009 (ip), vehicle: saline with Tween-80 94 % of control | [3] 86 % of control | [4] 88 % of control

CCC1C(=O)NC(=O)C1(C)c1ccccc1 (stereo not drawn)
inactive: dose: 25.0 mg/kg/injection, schedule: Q01DX009 (ip), vehicle: saline 105 % of control | dose: 50.0 mg/kg/injection, schedule: Q01DX009 (ip), vehicle: saline 108 % of control | dose: 100.0 mg/kg/injection, schedule: Q01DX009 (ip), vehicle: saline 100 % of control | dose: 200.0 mg/kg/injection, schedule: Q01DX009 (ip), vehicle: saline 100 % of control

Clc1ccc2sc3c(c2c1)CCNC3
inactive: dose: 12.5 mg/kg/injection, schedule: Q01DX009 (ip), vehicle: Klucel (hydroxypropylcellulose) (HPC) 94 % of control | [5] 111 % of control | [6] 111 % of control | [7] 105 % of control

Cc1cc(C)c(-c2c(C)cc(C)c(N)c2C)c(C)c1N
inactive: dose: 75.0 mg/kg/injection, schedule: Q04DX003 (ip), vehicle: Klucel (hydroxypropylcellulose) (HPC) 91 % of control

Nc1nc(=S)c2ncn(C3CC(O)C(CO)O3)c2[nH]1 (stereo not drawn)
inactive: dose: 1.25 mg/kg/injection, schedule: Q01DX009 (ip), vehicle: saline with Tween-80 104 % of control | dose: 1.25 mg/kg/injection, schedule: Q01DX009 (ip), vehicle: saline 102 % of control | dose: 2.5 mg/kg/injection, schedule: Q01DX009 (ip), vehicle: saline with Tween-80 117 % of control | dose: 2.5 mg/kg/injection, schedule: Q01DX009 (ip), vehicle: saline 93 % of control | dose: 5.0 mg/kg/injection, schedule: Q01DX009 (ip), vehicle: saline with Tween-80 113 % of control | dose: 5.0 mg/kg/injection, schedule: Q01DX009 (ip), vehicle: saline 104 % of control | dose: 10.0 mg/kg/injection, schedule: Q01DX009 (ip), vehicle: saline 104 % of control | dose: 12.5 mg/kg/injection, schedule: Q01DX009 (ip), vehicle: saline sonified 112 % of control | dose: 20.0 mg/kg/injection, schedule: Q01DX009 (ip), vehicle: saline 100 % of control | dose: 25.0 mg/kg/injection, schedule: Q01DX009 (ip), vehicle: saline sonified 110 % of control | dose: 50.0 mg/kg/injection, schedule: Q01DX009 (ip), vehicle: saline sonified 87 % of control

S=C=NCCc1ccccc1
inactive: [3] 111 % of control | [4] 114 % of control | [1] 96 % of control

CC1(C)N=C(N)N=C(N)N1c1cccc(CC(=O)Nc2ccc(S(=O)(=O)F)cc2)c1
inactive: [5] 103 % of control | [6] 102 % of control | [7] 109 % of control | dose: 150.0 mg/kg/injection, schedule: Q01DX009 (ip), vehicle: Klucel (hydroxypropylcellulose) (HPC) 109 % of control

— PubChem BioAssay AID192 (DTP/NCI, 2004)
